Consider 2 compounds from US7683173B2, “Biphenyl compounds useful as muscarinic receptor antagonists” (Theravance, Inc., priority 2005, dated 2010).

Each structure is given as a SMILES string. A value given as a limit tells only on which side of the number the result lay.

Data set [1] in a line: Dynamic moisture sorption assessment. The class given is physicochemical. How it is done: A dynamic moisture sorption (DMS) assessment (also known as a moisture sorption-desorption profile) was performed for samples of the crystalline monopropionate salt using a VTI atmospheric microbalance, SGA-100 system (VTI Corp., Hialeah, Fla. 33016). A sample size of approximately 10 mg was used and the humidity was set at the ambient value at the start of the analysis. A typical DMS analysis consisted of three scans: ambient to 2% relative humidity (RH), 2% RH to 90% RH, 90% RH to 5% RH at a scan rate of 5% RH/step. The mass was measured every two minutes and the RH was changed to the next value (+/−5% RH) when the mass of the sample was stable to within 0.01% for 5 consecutive points.

Data set [2] is described as follows: Thermal analysis (DSC). The note with it: DSC trace. The class given is physicochemical. Here is the method: Differential scanning calorimetry (DSC) was performed using a TA Instruments Model Q-10 module with a Thermal Analyst controller. Data were collected and analyzed using TA Instruments Thermal Solutions software. A sample of about 1 mg was accurately weighed into an aluminum pan with lid. The sample was evaluated using a linear heating ramp of 10° C./min from ambient temperature to approximately 300° C. The DSC cell was purged with dry nitrogen during use.

In data set [3] the target is T1, M3 muscarinic receptor subtype (hM3) (Homo sapiens, UniProt P20309).
T1 construct: expressed in transfected cells
Kind of data set: Radioligand binding assay ([3H]-NMS displacement). The note with it: tested in this or a similar assay. Here is the method: CHO cell lines stably expressing cloned human hM1, hM2, hM3 and hM4 muscarinic receptor subtypes, respectively, were grown to near confluency in medium consisting of HAM's F-12 supplemented with 10% FBS and 250 μg/mL Geneticin. The cells were grown in a 5% CO2, 37° C. incubator and lifted with 2 mM EDTA in dPBS. Cells were collected by 5 minute centrifugation at 650×g, and cell pellets were either stored frozen at −80° C. or membranes were prepared immediately. For membrane preparation, cell pellets were resuspended in lysis buffer and homogenized with a Polytron PT-2100 tissue disrupter (Kinematica AG; 20 seconds×2 bursts). Crude membranes were centrifuged at 40,000×g for 15 minutes at 4° C. […] The protein concentration of the membrane suspension was determined by the method described in Lowry, O. et al., Journal of Biochemistry 193:265 (1951). […]
Radioligand binding assays were performed in 96-well microtiter plates in a total assay volume of 100 μL. […] Filter plates were rinsed three times with wash buffer (10 mM HEPES) to remove unbound radioactivity. […] The plates were then counted in a PerkinElmer Topcount liquid scintillation counter (PerkinElmer Inc., Wellesley, Mass.). Binding data were analyzed by nonlinear regression analysis with the GraphPad Prism Software package (GraphPad Software, Inc., San Diego, Calif.) using the one-site competition model. […]

T1 sequence (P20309 whole entry): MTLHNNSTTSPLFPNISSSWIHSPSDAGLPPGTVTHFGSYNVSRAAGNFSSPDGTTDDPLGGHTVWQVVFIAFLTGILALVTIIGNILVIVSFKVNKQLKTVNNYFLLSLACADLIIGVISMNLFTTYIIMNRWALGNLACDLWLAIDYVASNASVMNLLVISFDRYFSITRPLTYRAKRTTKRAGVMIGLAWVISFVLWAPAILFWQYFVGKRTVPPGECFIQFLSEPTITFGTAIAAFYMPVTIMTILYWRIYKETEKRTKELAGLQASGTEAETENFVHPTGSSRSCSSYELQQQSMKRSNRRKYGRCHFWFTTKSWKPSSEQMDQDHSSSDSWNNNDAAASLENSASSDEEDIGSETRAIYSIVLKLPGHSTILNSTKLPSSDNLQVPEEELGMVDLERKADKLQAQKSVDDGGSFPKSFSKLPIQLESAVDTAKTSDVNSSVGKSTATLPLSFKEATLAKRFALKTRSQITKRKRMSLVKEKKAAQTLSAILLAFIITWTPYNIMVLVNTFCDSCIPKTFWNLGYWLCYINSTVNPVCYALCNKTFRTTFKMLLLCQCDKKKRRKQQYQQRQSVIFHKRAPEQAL

Take `CCC(=O)O.O=C(Nc1ccccc1-c1ccccc1)OC1CCN(CCCN2CCN(CCCNCc3ccc(O)cc3)C2=O)CC1` [Example 2, Monopropionate Crystalline Salt of Biphenyl-2-ylcarbamic Acid 1-(3-{3-[3-(4-Hydroxybenzylamino)propyl]-2-oxoimidazolidin-1-yl}propyl)piperidin-4-yl Ester]: in data set [1] (DMS trace), the “hygroscopicity (sorption/desorption profile)” value is “low hygroscopicity”. Also, the weight gain worked out at 1.0% in data set [1] (humidity range of 40-70% RH, micronized material); 0.7% in data set [1] (humidity range of 40-70% RH, unmicronized); 0.3% in data set [1] (humidity range of 40-75% RH). In addition, the thermal stability entry in data set [2] is “good thermal stability”.
On to `O=C(Nc1ccccc1-c1ccccc1)OC1CCN(CCCN2CCN(CCCNCc3ccc(O)cc3)C2=O)CC1` [Example 1, Biphenyl-2-ylcarbamic Acid 1-(3-{3-[3-(4-Hydroxybenzylamino)propyl]-2-oxoimidazolidin-1-yl}propyl)piperidin-4-yl Ester], for which the Ki (in general, the dissociation constant of the complex between target and ligand, obtained from inhibition or displacement) in data set [3] was under 5 nM.
